Calls of active or inactive are those of the source. How the calls were made is not given here.
Legend:
Echinochloa oryzicola = assay: Herbicidal activity against Echinochloa oryzicola assessed as phytotoxic activity ratings (0- no effect to 5-complete killing rating scale) at 100 g/a measured after 3 weeks post compound treatment under green house conditions; format: functional
[1] = tested on: Schoenoplectiella juncoides; assay: Herbicidal activity against Schoenoplectiella juncoides var. Hotarui Ohwi assessed as phytotoxic activity ratings (0- no effect to 5-complete killing rating scale) at 100 g/a measured after 3 weeks post compound treatment under green house conditions; format: functional
Oryza sativa [2] = assay: Phytotoxicity against transplanted Oryza sativa (rice) seedlings assessed as phytotoxic activity ratings (0- no effect to 5-complete killing rating scale) at 100 g/a measured after 3 weeks post compound treatment under green house conditions; format: organism-based; conditions: in vivo, 504 h
Cyperus serotinus [3] = assay: Herbicidal activity against Cyperus serotinus assessed as phytotoxic activity ratings (0- no effect to 5-complete killing rating scale) at 100 g/a measured after 3 weeks post compound treatment under green house conditions; format: functional
Oryza sativa [4] = assay: Phytotoxicity against directly seeded Oryza sativa (rice) seedlings assessed as phytotoxic activity ratings (0- no effect to 5-complete killing rating scale) at 100 g/a measured after 3 weeks post compound treatment under green house conditions; format: organism-based; conditions: in vivo, 504 h
Cyperus difformis = assay: Herbicidal activity against Cyperus difformis assessed as phytotoxic activity ratings (0- no effect to 5-complete killing rating scale) at 100 g/a measured after 3 weeks post compound treatment under green house conditions; format: functional
Cyperus serotinus [5] = assay: Herbicidal activity against Cyperus serotinus assessed as phytotoxic activity ratings (0- no effect to 5-complete killing rating scale) at 3.1 to 100 g/a measured after 3 weeks post compound treatment under green house conditions; format: functional

Cc1cccc(NC(=O)N[C@@H](C)c2ccccc2)c1
Activity (Echinochloa oryzicola): 10%
Activity [1]: 0%
Activity (Oryza sativa [2]): 0%
Activity (Cyperus serotinus [3]): 0%
Activity (Oryza sativa [4]): 10%
Activity (Cyperus difformis): 0%

C[C@H](NC(=O)Nc1ccccc1C(C)(C)C)c1ccccc1
Activity (Echinochloa oryzicola): 0%
Activity [1]: 10%
Activity (Oryza sativa [2]): 0%
Activity (Cyperus serotinus [3]): 0%
Activity (Oryza sativa [4]): 0%
Activity (Cyperus difformis): 40%

Cc1ccccc1NC(=O)N[C@@H](C)c1ccccc1
Activity (Echinochloa oryzicola): 0%
Activity [1]: 0%
Activity (Oryza sativa [2]): 0%
Activity (Cyperus serotinus [3]): 0%
Activity (Oryza sativa [4]): 0%
Activity (Cyperus difformis): 0%

CCc1ccccc1NC(=O)N[C@@H](C)c1ccccc1
Activity (Echinochloa oryzicola): 0%
Activity [1]: 10%
Activity (Oryza sativa [2]): 0%
Activity (Cyperus serotinus [3]): 0%
Activity (Oryza sativa [4]): 0%
Activity (Cyperus difformis): 40%

CCc1ccc(NC(=O)N[C@@H](C)c2ccccc2)cc1
Activity (Echinochloa oryzicola): 0%
Activity [1]: 0%
Activity (Oryza sativa [2]): 0%
Activity (Cyperus serotinus [3]): 0%
Activity (Oryza sativa [4]): 0%
Activity (Cyperus difformis): 0%

C[C@@H](NC(=O)Nc1ccccc1F)c1ccccc1
Activity (Echinochloa oryzicola): 10%
Activity [1]: 10%
Activity (Oryza sativa [2]): 0%
Activity (Cyperus serotinus [3]): 40%
Activity (Oryza sativa [4]): 10%
Activity (Cyperus difformis): 40%

Cc1cccc(NC(=O)N[C@H](C)c2ccccc2)c1
Activity (Echinochloa oryzicola): 40%
Activity [1]: 80%
Activity (Oryza sativa [2]): 0%
Activity (Cyperus serotinus [3]): 80%
Activity (Oryza sativa [4]): 10%
Activity (Cyperus difformis): 80%

C[C@H](NC(=O)Nc1c(F)cccc1F)c1ccccc1
Activity (Echinochloa oryzicola): 0%
Activity [1]: 0%
Activity (Oryza sativa [2]): 0%
Activity (Cyperus serotinus [3]): 0%
Activity (Oryza sativa [4]): 0%
Activity (Cyperus difformis): 0%

Cc1cc(F)ccc1NC(=O)N[C@@H](C)c1ccccc1
Activity (Echinochloa oryzicola): 0%
Activity [1]: 40%
Activity (Oryza sativa [2]): 0%
Activity (Cyperus serotinus [3]): 40%
Activity (Oryza sativa [4]): 0%
Activity (Cyperus difformis): 10%

C[C@@H](NC(=O)Nc1ccccc1)c1ccccc1
Activity (Echinochloa oryzicola): 40%
Activity [1]: 10%
Activity (Oryza sativa [2]): 0%
Activity (Cyperus serotinus [3]): 80%
Activity (Oryza sativa [4]): 0%
Activity (Cyperus difformis): 40%

Cc1ccc(NC(=O)N[C@@H](C)c2ccccc2)cc1
Activity (Echinochloa oryzicola): 40%
Activity [1]: 0%
Activity (Oryza sativa [2]): 0%
Activity (Cyperus serotinus [3]): 0%
Activity (Oryza sativa [4]): 0%
Activity (Cyperus difformis): 0%

Cc1cc(F)ccc1NC(=O)N[C@H](C)c1ccccc1
Activity (Echinochloa oryzicola): 0%
Activity [1]: 0%
Activity (Oryza sativa [2]): 0%
Activity (Cyperus serotinus [3]): 0%
Activity (Oryza sativa [4]): 0%
Activity (Cyperus difformis): 0%

CCc1ccc(NC(=O)N[C@H](C)c2ccccc2)cc1
Activity (Echinochloa oryzicola): 0%
Activity [1]: 40%
Activity (Oryza sativa [2]): 0%
Activity (Cyperus serotinus [3]): 40%
Activity (Oryza sativa [4]): 0%
Activity (Cyperus difformis): 40%

COc1cccc(NC(=O)N[C@@H](C)c2ccccc2)c1
Activity (Echinochloa oryzicola): 0%
Activity [1]: 0%
Activity (Oryza sativa [2]): 0%
Activity (Cyperus serotinus [3]): 0%
Activity (Oryza sativa [4]): 0%
Activity (Cyperus difformis): 0%

C[C@H](NC(=O)Nc1ccc(F)cc1F)c1ccccc1
Activity (Echinochloa oryzicola): 0%
Activity [1]: 0%
Activity (Cyperus serotinus [5]): inactive
Activity (Oryza sativa [2]): 0%
Activity (Oryza sativa [4]): 0%
Activity (Cyperus difformis): 0%

C[C@@H](NC(=O)Nc1c(F)cccc1F)c1ccccc1
Activity (Echinochloa oryzicola): 40%
Activity [1]: 40%
Activity (Oryza sativa [2]): 0%
Activity (Cyperus serotinus [3]): 40%
Activity (Cyperus difformis): 40%

C[C@@H](NC(=O)Nc1ccc(Br)cc1)c1ccccc1
Activity (Echinochloa oryzicola): 0%
Activity [1]: 0%
Activity (Cyperus serotinus [5]): inactive
Activity (Oryza sativa [2]): 0%
Activity (Oryza sativa [4]): 0%
Activity (Cyperus difformis): 0%

CC(C)c1ccc(NC(=O)N[C@H](C)c2ccccc2)cc1
Activity (Echinochloa oryzicola): 0%
Activity [1]: 0%
Activity (Cyperus serotinus [5]): inactive
Activity (Oryza sativa [2]): 0%
Activity (Oryza sativa [4]): 0%
Activity (Cyperus difformis): 0%

CCCCc1ccc(NC(=O)N[C@@H](C)c2ccccc2)cc1
Activity (Echinochloa oryzicola): 10%
Activity [1]: 0%
Activity (Cyperus serotinus [5]): inactive
Activity (Oryza sativa [2]): 0%
Activity (Oryza sativa [4]): 10%
Activity (Cyperus difformis): 0%

C[C@@H](NC(=O)Nc1ccc(F)cc1)c1ccccc1
Activity (Echinochloa oryzicola): 0%
Activity [1]: 0%
Activity (Cyperus serotinus [5]): inactive
Activity (Oryza sativa [2]): 0%
Activity (Oryza sativa [4]): 0%
Activity (Cyperus difformis): 0%

C[C@@H](NC(=O)Nc1cc(C(F)(F)F)cc(C(F)(F)F)c1)c1ccccc1
Activity (Echinochloa oryzicola): 0%
Activity [1]: 0%
Activity (Cyperus serotinus [5]): inactive
Activity (Oryza sativa [2]): 0%
Activity (Oryza sativa [4]): 0%
Activity (Cyperus difformis): 0%

CCCCCCc1ccc(NC(=O)N[C@H](C)c2ccccc2)cc1
Activity (Echinochloa oryzicola): 0%
Activity [1]: 0%
Activity (Cyperus serotinus [5]): inactive
Activity (Oryza sativa [2]): 0%
Activity (Oryza sativa [4]): 0%
Activity (Cyperus difformis): 0%

COc1ccccc1NC(=O)N[C@@H](C)c1ccccc1
Activity (Echinochloa oryzicola): 0%
Activity [1]: 0%
Activity (Cyperus serotinus [5]): inactive
Activity (Oryza sativa [2]): 0%
Activity (Oryza sativa [4]): 0%
Activity (Cyperus difformis): 0%

CC(=O)c1ccccc1NC(=O)N[C@H](C)c1ccccc1
Activity (Echinochloa oryzicola): 0%
Activity [1]: 0%
Activity (Cyperus serotinus [5]): inactive
Activity (Oryza sativa [2]): 0%
Activity (Oryza sativa [4]): 0%
Activity (Cyperus difformis): 0%

C[C@@H](NC(=O)Nc1ccc(C(C)(C)C)cc1)c1ccccc1
Activity (Echinochloa oryzicola): 10%
Activity [1]: 0%
Activity (Cyperus serotinus [5]): inactive
Activity (Oryza sativa [2]): 0%
Activity (Oryza sativa [4]): 0%
Activity (Cyperus difformis): 0%

C[C@H](NC(=O)Nc1ccccc1I)c1ccccc1
Activity (Echinochloa oryzicola): 0%
Activity [1]: 0%
Activity (Cyperus serotinus [5]): inactive
Activity (Oryza sativa [2]): 0%
Activity (Oryza sativa [4]): 0%
Activity (Cyperus difformis): 10%

C[C@H](NC(=O)Nc1ccc(C(F)(F)F)cc1)c1ccccc1
Activity (Echinochloa oryzicola): 0%
Activity [1]: 0%
Activity (Cyperus serotinus [5]): inactive
Activity (Oryza sativa [2]): 0%
Activity (Oryza sativa [4]): 0%
Activity (Cyperus difformis): 0%

CCOC(=O)c1ccccc1NC(=O)N[C@@H](C)c1ccccc1
Activity (Echinochloa oryzicola): 10%
Activity [1]: 0%
Activity (Cyperus serotinus [5]): inactive
Activity (Oryza sativa [2]): 0%
Activity (Oryza sativa [4]): 0%
Activity (Cyperus difformis): 0%

C[C@H](NC(=O)Nc1cc(C(F)(F)F)ccc1F)c1ccccc1
Activity (Echinochloa oryzicola): 0%
Activity [1]: 0%
Activity (Cyperus serotinus [5]): inactive
Activity (Oryza sativa [2]): 0%
Activity (Oryza sativa [4]): 0%
Activity (Cyperus difformis): 0%

Cc1ccc(NC(=O)N[C@@H](C)c2ccccc2)c(F)c1
Activity (Echinochloa oryzicola): 0%
Activity [1]: 0%
Activity (Cyperus serotinus [5]): inactive
Activity (Oryza sativa [2]): 0%
Activity (Oryza sativa [4]): 0%
Activity (Cyperus difformis): 0%

CCOC(=O)c1cccc(NC(=O)N[C@H](C)c2ccccc2)c1
Activity (Echinochloa oryzicola): 0%
Activity [1]: 0%
Activity (Cyperus serotinus [5]): inactive
Activity (Oryza sativa [2]): 0%
Activity (Oryza sativa [4]): 0%
Activity (Cyperus difformis): 0%

C[C@H](NC(=O)Nc1cccc(Cl)c1Cl)c1ccccc1
Activity (Echinochloa oryzicola): 0%
Activity [1]: 0%
Activity (Cyperus serotinus [5]): inactive
Activity (Oryza sativa [2]): 0%
Activity (Oryza sativa [4]): 0%
Activity (Cyperus difformis): 0%

From ChEMBL document CHEMBL3046383, “Enantioselective Herbicidal Activity of Chiral α-Methylbenzylphenylureas against Cyperaceae and Echinochloa Paddy Weeds” (Biosci Biotechnol Biochem, 1998)
